These results are taken from EP3628672A1 (priority 2018, dated 2020).

pKi: −log10 of the molar value. Like-named read-outs stand apart in the source and are kept apart here. Where only a bound is given, the exact number is not on record here.

Assay [1] has as its target T1, purified LasB protein from P. aeruginosa (Pseudomonas aeruginosa, UniProt P14756).
T1 construct: purchased Merck or Charles River Laboratories
In words: Fluorometric assay to determine Ki (Abz-Ala-Gly-Leu-Ala-p-Nitro-Benzyl-Amide substrate). The format is biochemical. The method, boiled down: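 Purified P. aeruginosa LasB (10–140 ng/ml) with 250 µM Abz-Ala-Gly-Leu-Ala-p-nitrobenzylamide in 50 mM Tris-HCl pH 7.4, 2.5 mM CaCl2, 0.01% Triton X100, 37 °C; hydrolysis fluorescence (Ex 340/Em 415 nm) followed over 30 min, inhibitor 0.0016–200 µM. Ki = IC50/(1+[S]/Km), Km 214 µM.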

Assay [2] deals with T2, LasB (Pseudomonas aeruginosa, UniProt P14756).
T2 construct: uses as source of enzyme dialysed supernatant from P. aeruginosa PAO1; endogenous in cells; host or cells: P. aeruginosa PAO1 culture supernatant, filtered and dialysed
T2 sequence (P14756 198-498): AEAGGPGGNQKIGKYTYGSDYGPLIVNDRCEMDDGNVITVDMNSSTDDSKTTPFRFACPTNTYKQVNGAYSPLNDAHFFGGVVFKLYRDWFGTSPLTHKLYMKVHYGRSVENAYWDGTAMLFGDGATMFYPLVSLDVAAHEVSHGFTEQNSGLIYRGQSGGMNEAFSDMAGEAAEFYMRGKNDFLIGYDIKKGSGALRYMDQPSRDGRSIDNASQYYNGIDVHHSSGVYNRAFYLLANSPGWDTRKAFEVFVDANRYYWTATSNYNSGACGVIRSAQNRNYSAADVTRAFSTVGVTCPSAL
The assay is described as follows: Elastin assay to determine % inhibition (Elastin Congo-Red, dialysed culture supernatant). The following applies: read-out: Elastin hydrolysis % inhibition @ 50 / 25 µM inhibitor concentration. The format is biochemical, P. aeruginosa PAO1. The method, then:
Experiments were therefore conducted (1) to measure the potency of inhibition of compounds of the invention against purified Pseudomonas aeruginosa LasB enzyme and also experiments were conducted (2) to measure the ability of compounds of the invention to inhibit LasB-catalysed elastin degradation. The first assay uses a commercial fluorescent synthetic peptide and purified LasB enzyme. The LasB hydrolysis kinetics are measured allowing the determination of the IC50 and Ki of the inhibitors; the second is a more physiological assay using dialysed Pseudomonas aeruginosa supernatant as source of enzyme, plus its natural substrate Elastin. It is an "end point assay" that determines the percentage of LasB inhibition by each compound for one particular time point and inhibitor concentration. Technical details are described below:
The Elastin assay uses as source of enzyme dialysed supernatant from P. aeruginosa PAO1 and the Elastin Congo-Red as substrate. The natural LasB substrate, elastin, is complexed with the congo-red dye (Elastin Congo-Red, ECR). The elastolysis activity from the culture supernatant will degrade elastin and release the congo-red dye into the supernatant. This red dye release can be measured with a spectrophotometer.
Method: To determine LasB elastase activity and assess compound inhibition, an overnight culture of P. aeruginosa strain PAO1 is diluted in LB medium. After reaching an OD600nm of 0.6, this culture is diluted and incubated for additional 18-24 hours in a shaking incubator. Culture supernatants are recovered by centrifugation and filtrated through a […] filter. These supernatants are dialysed (filtration molecules < 20kDa) into a 50 mM Tris-HCl pH 7.4, 2.5 mM CaCl2 solution at 4°C under agitation for 24 hours. Supernatant dialysed is then mixed volume/volume with the ECR suspension (20 mg/mL of ECR in 100 mM Tris-HCl pH 7.4 buffer supplemented with 1 mM CaCl2) supplemented with Triton X100 (final concentration of 0.01%) in presence of DMSO (positive control) and/or different concentrations of compound (routinely 50 to 1.56 µM). As a negative control, the dialysed supernatant is replaced by Tris-HCl solution (50 mM Tris-HCl pH 7.4, 2.5 mM CaCl2). The mixed reaction is then incubated overnight in a 37°C shaking incubator. The reaction supernatant is recovered by centrifugation and the release of congo-red is measured by its absorbance at 495 nm (OD495nm).
Percentage inhibition is determined using the following equation: ((OD495nmvalue of positive control−OD495nmvalue of negative control)−(OD495nmvalue of treated supernatant−OD495nmvalue of positive control))/(OD495nmvalue of positive control−OD495nmvalue of negative control) × 100. [formula]

T1 sequence (P14756 198-498): as above

`CN1CCN(c2ccc(-c3csc(CNC(=O)C4(CC(=O)O)Cc5ccccc5C4)n3)cn2)CC1` [Example 34, 2-[2-[[4-[6-(4-methylpiperazin-1-yl)-3-pyridyl]thiazol-2-yl]methylcarbamoyl]indan-2-yl]acetic acid] showed a pKi in assay [1] of 6.70 to 7.30. Besides, the inhibition at 25 µM in assay [2] is 60 to 75%.
`CN(C)C1CN(c2ccc(-c3csc(CNC(=O)C4(CC(=O)O)Cc5ccccc5C4)n3)cn2)C1` [Example 35, 2-[2-[[4-[6-[3-(dimethylamino)azetidin-1-yl]-3-pyridyl]thiazol-2-yl]methylcarbamoyl]indan-2-yl]acetic acid] gave a pKi in assay [1] of 6.70 to 7.30. In assay [2], the inhibition at 25 µM lay in the range of 60 to 75%.
Turning to `CN1CCN(C(=O)CN2CCN(c3ccc(-c4csc(CNC(=O)C5(CC(=O)O)Cc6ccccc6C5)n4)cc3)CC2)CC1` [Example 36, 2-[2-[[4-[4-[4-[2-(4-methylpiperazin-1-yl)-2-oxo-ethyl]piperazin-1-yl]phenyl]thiazol-2-yl]methylcarbamoyl]indan-2-yl]acetic acid], in assay [1], the pKi is more than 7.30. Further, the inhibition at 25 µM in assay [2] is more than 75%.
For `CN(C)CC#Cc1ccc(-c2csc(CNC(=O)C3(CC(=O)O)Cc4ccccc4C3)n2)cc1` [Example 37, 2-[2-[[4-[4-[3-(dimethylamino)prop-1-ynyl]phenyl]thiazol-2-yl]methylcarbamoyl]indan-2-yl]acetic acid], in that order: 6.70 to 7.30 and 60 to 75%.
In turn, `CN1CCN(C(=O)COc2ccc(-c3csc(CNC(=O)C4(CC(=O)O)Cc5ccccc5C4)n3)cn2)CC1` [Example 38, 2-[2-[[4-[6-[2-(4-methylpiperazin-1-yl)-2-oxo-ethoxy]-3-pyridyl]thiazol-2-yl]methylcarbamoyl]indan-2-yl]acetic acid] had a pKi in assay [1] of 6.70 to 7.30. In assay [2], the inhibition at 25 µM was 60 to 75%.
As to `CN(C)CC(=O)Nc1ccc(-c2csc(CNC(=O)C3(CC(=O)O)Cc4ccccc4C3)n2)cc1` [Example 39, 2-[2-[[4-[4-[[2-(dimethylamino)acetyl]amino]phenyl]thiazol-2-yl]methylcarbamoyl]indan-2-yl]acetic acid], the pKi in assay [1] is 6.70 to 7.30. The inhibition at 25 µM in assay [2] lay in the range of 60 to 75%.
Regarding `CN1CCC(C(=O)Nc2ccc(-c3csc(CNC(=O)C4(CC(=O)O)Cc5ccccc5C4)n3)cc2)CC1` [Example 43, 2-[2-[[4-[4-[(1-methylpiperidine-4-carbonyl)amino]phenyl]thiazol-2-yl]methylcarbamoyl]indan-2-yl]acetic acid], the pKi in assay [1] was 5.00 to 6.70. For the same compound, in assay [2], the inhibition at 25 µM lay within 60 to 75%.
The compound `CN1CCN(C(=O)Nc2ccc(-c3csc(CNC(=O)C4(CC(=O)O)Cc5ccccc5C4)n3)cc2)CC1` [Example 44, 2-[2-[[4-[4-[(4-methylpiperazine-1-carbonyl)amino]phenyl]thiazol-2-yl]methylcarbamoyl]indan-2-yl]acetic acid] showed a pKi in assay [1] of 6.70 to 7.30. For the same compound, the inhibition at 25 µM in assay [2] lay in the range of 60 to 75%.
The like results for `CN1CCN(CC(=O)Nc2ccc(-c3csc(CNC(=O)C4(CC(=O)O)Cc5ccccc5C4)n3)cc2)CC1` [Example 45, 2-[2-[[4-[4-[[2-(4-methylpiperazin-1-yl)acetyl]amino]phenyl]thiazol-2-yl]methylcarbamoyl]indan-2-yl]acetic acid] were, in that order, 6.70 to 7.30 and 60 to 75%.
As for `CN1CCN(C(=O)COc2ccc(-c3csc(CNC(=O)C4(CC(=O)O)Cc5ccccc5C4)n3)cc2)CC1` [Example 46, 2-[2-[[4-[4-[2-(4-methylpiperazin-1-yl)-2-oxo-ethoxy]phenyl]thiazol-2-yl]methylcarbamoyl]indan-2-yl]acetic acid], the pKi in assay [1] is 6.70 to 7.30. For the same compound, the inhibition at 25 µM in assay [2] is more than 75%.
For `C[N+]1(C)CCN(C(=O)COc2ccc(-c3csc(CNC(=O)C4(CC(=O)[O-])Cc5ccccc5C4)n3)cc2)CC1` [Example 47, 2-[2-[[4-[4-[2-(4,4-dimethylpiperazin-4-ium-1-yl)-2-oxo-ethoxy]phenyl]thiazol-2-yl]methylcarbamoyl]indan-2-yl]acetate], the pKi in assay [1] was 5.00 to 6.70. Moreover, the inhibition at 25 µM in assay [2] was in the range of 60 to 75%.
As for `O=C(O)CC1(C(=O)NCc2nc(-c3ccc(OCCN4CCOCC4)cc3)cs2)Cc2ccccc2C1` [Example 49, 2-[2-[[4-[4-(2-morpholinoethoxy)phenyl]thiazol-2-yl]methylcarbamoyl]indan-2-yl]acetic acid], the pKi in assay [1] was 6.70 to 7.30. The inhibition at 25 µM in assay [2] lay within 60 to 75%.
For `C[N+]1(CCOc2ccc(-c3csc(CNC(=O)C4(CC(=O)[O-])Cc5ccccc5C4)n3)cc2)CCOCC1` [Example 50, 2-[2-[[4-[4-[2-(4-methylmorpholin-4-ium-4-yl)ethoxy]phenyl]thiazol-2-yl]methylcarbamoyl]indan-2-yl]acetate], in that order: 5.00 to 6.70 and 60 to 75%.
The like results for `C[n+]1ccc(COc2ccc(-c3csc(CNC(=O)C4(CC(=O)[O-])Cc5ccccc5C4)n3)cc2)cc1` [Example 51, 2-[2-[[4-[4-[(1-methylpyridin-1-ium-4-yl)methoxy]phenyl]thiazol-2-yl]methylcarbamoyl]indan-2-yl]acetate] were, in that order, 6.70 to 7.30 and 60 to 75%.
For the compound `CN1CCN(C(=O)COc2cccc(-c3csc(CNC(=O)C4(CC(=O)O)Cc5ccccc5C4)n3)c2)CC1` [Example 54, 2-[2-[[4-[3-[2-(4-methylpiperazin-1-yl)-2-oxo-ethoxy]phenyl]thiazol-2-yl]methylcarbamoyl]indan-2-yl]acetic acid], the pKi in assay [1] (Ki calculated from IC50, [S] = 250 µM, Km = 214 µM, 37°C, pH 7.4) is 5.00 to 6.70. The inhibition at 25 µM in assay [2] lay in the range of 60 to 75%.
In assay [1], `O=C(O)CC1(C(=O)NCc2nc(-c3ccc(OCCCN4CCOCC4)cc3)cs2)Cc2ccccc2C1` [Example 55, 2-[2-[[4-[4-(3-morpholinopropoxy)phenyl]thiazol-2-yl]methylcarbamoyl]indan-2-yl]acetic acid] had a negative-log Ki (pKi) of 6.70 to 7.30. Moreover, in assay [2], the inhibition at 25 µM was 60 to 75%.
On to `C[N+]1(CCCOc2ccc(-c3csc(CNC(=O)C4(CC(=O)[O-])Cc5ccccc5C4)n3)cc2)CCOCC1` [Example 56, 2-[2-[[4-[4-[3-(4-methylmorpholin-4-ium-4-yl)propoxy]phenyl]thiazol-2-yl]methylcarbarmoyl]indan-2-yl]acetate], for which the negative logarithm of the Ki (pKi) in assay [1] is 6.70 to 7.30. In addition, the inhibition at 25 µM in assay [2] fell in the range of 60 to 75%.
For `CN1CCN(CCCOc2ccc(-c3csc(CNC(=O)C4(CC(=O)O)Cc5ccccc5C4)n3)cc2)CC1` [Example 57, 2-[2-[[4-[4-[3-(4-methylpiperazin-1-yl)propoxy]phenyl]thiazol-2-yl]methylcarbamoyl]indan-2-yl]acetic acid], in that order: 6.70 to 7.30 and 60 to 75%.
For `O=C(O)CC1(C(=O)NCc2nc(-c3ccc(OCCCN4CCCC4)cc3)cs2)Cc2ccccc2C1` [Example 58, 2-[2-[[4-[4-(3-pyrrolidin-1-ylpropoxy)phenyl]thiazol-2-yl]methylcarbamoyl]indan-2-yl]acetic acid], the pKi in assay [1] was 6.70 to 7.30. Besides, the inhibition at 25 µM in assay [2] fell in the range of 60 to 75%.
For `O=C([O-])CC1(C(=O)NCc2nc(-c3ccc(OCCC[n+]4ccccc4)cc3)cs2)Cc2ccccc2C1` [Example 59, 2-[2-[[4-[4-(3-pyridm-1-ium-1-ylpropoxy)phenyl]thiazol-2-yl]methylcarbamoyl]indan-2-yl]acetate], in that order: 6.70 to 7.30 and 60 to 75%.
`CS(=O)(=O)c1cc(-c2csc(CNC(=O)C3(CC(=O)O)Cc4ccccc4C3)n2)ccc1OCCCN1CCOCC1` [Example 60, 2-[2-[[4-[3-methylsulfonyl-4-(3-morpholinopropoxy)phenyl]thiazol-2-yl]methylcarbamoyl]indan-2-yl]acetic acid]: in assay [1], the pKi was more than 7.30. The inhibition at 25 µM in assay [2] was in the range of 60 to 75%.

Broadly, the pKi is the negative decadic logarithm of the Ki, by convention in mol/L.
